Reference: paper PMC8472154 (Molecules, 2021)
Read-outs that look alike come from different tables or passages of the source. Marks after values point to notes of the source that are not given here.

Columns and labels:
[1] = Nitric oxide free radical scavenging activity (sodium nitroprusside); parameters: key to Half Maximal Inhibitory Concentration IC50 NO.: ---: no activity; details: for Half Maximal Inhibitory Concentration IC50 NO.: mean ± SD, triplicate; for nitric oxide radical scavenging activity: at the concentrations permitted to evaluate, Figure 3C
Method: The essential oil NO scavenging activity was estimated using the protocol described by El Guendouz et al. The inhibition percentage was calculated using the formula: Inhibition = [(A0 − (A1 − A2)/A0 × 100]. The A0 is the absorbance of sodium nitroprusside without sample, A1 and A2 were the absorbance of the sample with and without sodium nitroprusside.

acetylcholinesterase [2] = biological target: T1, acetylcholinesterase (Homo sapiens, UniProt P22303); experiment: biochemical; type: biochemical
Method: The inhibitory activity of the essential oils on acetylcholinesterase was evaluated according to the method previously described. The following formula was used to determine the percentage of inhibition action: Inhibition = [(A0 − A1)/A0) × 100]; where A0 is the absorbance of the control and A1 is the absorbance of the sample.

5-lipoxygenase = 5-lipoxygenase (Glycine max, UniProt P08170); experiment: Lipoxygenase inhibition assay (linoleic acid substrate); type: biochemical
Method: The 5-lipoxygenase assay was carried out according to the method described by El Guendouz et al. The following formula was used to determine the percentage of inhibition action: Inhibition = [(A0 − A1)/A0) × 100]; where A0 is the absorbance of the control and A1 is the absorbance of the sample.

tyrosinase [3] = experiment: Tyrosinase inhibition assay (L-DOPA oxidation); type: biochemical; parameters: inhibition: dose or concentration left out as unconfirmed; details: Figure 4C; read-out: tyrosinase inhibition percentage, major terpenes
Method: (§1) The tyrosinase inhibition was carried out by the tyrosinase-dependent L-3,4-dihydroxyphenylalanine (L-DOPA) oxidation assay as previously described. The following formula was used to determine the percentage of inhibition action: Inhibition = [(A0 − A1)/A0) × 100]; with A0 as the absorbance of the control and A1 as the absorbance of the sample.

S. aureus ATCC 6538 = experiment: Agar disc diffusion; type: cell-based, Staphylococcus aureus; details: 5 µL per 6 mm disc, 24 h, diameter including disc, chloramphenicol 30 μg/mL
Method: (§2) The Gram negative bacterium Escherichia coli DSM 1077, and the Gram positive Staphylococcus aureus ATCC 6538 and the methicillin-resistant S. aureus 15 (MRSA 15) were used in the present study. The bacterial strains were recovered from −80 °C in the culture medium Brain Heart Infusion (BHI, Oxoid, Basingstock, UK), when required agar (VWR, Radnor, Philadelphia, PA, USA) at 1.5% w/v.
(§3) The bacterial susceptibility to the combinations Ro:La:Ca at ratio 1:1:1, Ro:La:Ca at ratio 2/3:1/6:16, Ro:La:Ca at ratio 1/6:2/3:16, Ro:La:Ca at ratio 1/6:1/6:2/3, and the components linalool, 1,8 cineole, and camphor, were performed by the agar disc diffusion technique as previously described. Briefly, 100 µL of the bacterial suspension at an OD600nm 0.3–0.4 was inoculated in BHI agar, and sterile discs (∅ 6 mm) were distributed over the surface. A volume of 5 µL of each EO and the individual components 1,8-cineole (52.62 mg/mL), and linalool (16.13 mg/mL), were deposited in the center of each disc. The plates were incubated for 24 h. The diameter of the inhibition zone including the disc was measured. The assay was performed in triplicate (n = 6).

[4] = test system: methicillin-resistant S. aureus 15 (MRSA 15); experiment: Agar disc diffusion; type: cell-based, Staphylococcus aureus; details: 5 µL per 6 mm disc, 24 h, diameter including disc, chloramphenicol 30 μg/mL
Method: as §2, §3

E. coli DSM 1077 = experiment: Agar disc diffusion; type: cell-based, Escherichia coli; details: 5 µL per 6 mm disc, 24 h, diameter including disc, chloramphenicol 30 μg/mL
Method: as §2, §3

acetylcholinesterase [5] = biological target: T1, acetylcholinesterase; details: cited from earlier work
[6] = Hydrogen peroxide scavenging activity (colorimetric); parameters: key: ---: no activity; details: mean ± SD, triplicate
Method: The scavenging hydrogen peroxide was evaluated by a colorimetric assay according to Gupta and Sharma. […] Tests were carried out in triplicate.

[7] = Superoxide anion radical scavenging (nonenzymatic PMS-NADH system); parameters: key: ---: no activity; details: mean ± SD, triplicate
Method: Superoxide anion free radical inhibition ability was evaluated using a nonenzymatic PMS-NADH (phenazine methosulfate–nicotinamide adenine dinucleotide) system as previously reported. The inhibition quantification was performed as aforementioned.

α-glucosidase = α-glucosidase (Saccharomyces cerevisiae, UniProt P53341); experiment: α-Glucosidase inhibition assay; type: biochemical; details: mean ± SD, triplicate
Method: The α-glucosidase inhibitor capacity of the essential oils was determined as described by El-Guendouz et al. The crease of absorbance was performed at 405 nm. The inhibition percentage of the enzyme was calculated as follows: I% = [(A0 −A1)/A0) × 100]; where A0 is the absorbance of the control and A1 is the absorbance of the sample. The trials were triplicated.

[8] = DPPH free radical-scavenging activity; details: mean ± SD, triplicate
Method: The radical scavenging capacity was estimated according to Bounatirou et al. using 2,20-diphenylpicrylhydrazyl (DPPH) free radicals. The radical inhibition percentage was calculated with the equation: Inhibition = [(A0 − A1)/A0 × 100]; A0 stands for the absorbance of the control and A1 stands for the absorbance of the sample. […] Tests were carried out in triplicate.

S. aureus = test system: S. aureus; parameters: method as in PMID 12485339; details: previous study; cited from earlier work
E. coli = test system: E. coli; parameters: method as in PMID 12485339; details: previous study; cited from earlier work
MRSA strains = test system: MRSA strains; parameters: method as in PMID 31461850; details: cited from earlier work
tyrosinase [9] = biological target: T2, tyrosinase (Homo sapiens, UniProt P14679); experiment: Tyrosinase inhibition assay (L-DOPA oxidation); type: biochemical; parameters: inhibition: dose or concentration left out as unconfirmed; details: 50 mg/mL; Figure 4C
T2 sequence (P14679 19-529): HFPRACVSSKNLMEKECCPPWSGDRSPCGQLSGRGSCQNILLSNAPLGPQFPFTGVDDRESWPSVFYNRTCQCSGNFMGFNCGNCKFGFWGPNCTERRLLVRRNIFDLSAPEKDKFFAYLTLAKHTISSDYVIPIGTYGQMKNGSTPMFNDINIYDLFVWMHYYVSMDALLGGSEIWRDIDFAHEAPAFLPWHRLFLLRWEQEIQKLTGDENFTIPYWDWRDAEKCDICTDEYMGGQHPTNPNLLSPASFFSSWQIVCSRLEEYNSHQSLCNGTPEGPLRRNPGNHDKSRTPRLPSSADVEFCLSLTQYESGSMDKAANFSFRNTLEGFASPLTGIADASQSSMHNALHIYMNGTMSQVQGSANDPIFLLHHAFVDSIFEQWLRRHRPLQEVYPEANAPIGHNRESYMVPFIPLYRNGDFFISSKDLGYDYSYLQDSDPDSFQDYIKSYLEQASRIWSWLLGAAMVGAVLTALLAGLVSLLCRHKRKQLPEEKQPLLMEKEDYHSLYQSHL
Method: as §1

Sequence of 5-lipoxygenase (P08170 whole entry): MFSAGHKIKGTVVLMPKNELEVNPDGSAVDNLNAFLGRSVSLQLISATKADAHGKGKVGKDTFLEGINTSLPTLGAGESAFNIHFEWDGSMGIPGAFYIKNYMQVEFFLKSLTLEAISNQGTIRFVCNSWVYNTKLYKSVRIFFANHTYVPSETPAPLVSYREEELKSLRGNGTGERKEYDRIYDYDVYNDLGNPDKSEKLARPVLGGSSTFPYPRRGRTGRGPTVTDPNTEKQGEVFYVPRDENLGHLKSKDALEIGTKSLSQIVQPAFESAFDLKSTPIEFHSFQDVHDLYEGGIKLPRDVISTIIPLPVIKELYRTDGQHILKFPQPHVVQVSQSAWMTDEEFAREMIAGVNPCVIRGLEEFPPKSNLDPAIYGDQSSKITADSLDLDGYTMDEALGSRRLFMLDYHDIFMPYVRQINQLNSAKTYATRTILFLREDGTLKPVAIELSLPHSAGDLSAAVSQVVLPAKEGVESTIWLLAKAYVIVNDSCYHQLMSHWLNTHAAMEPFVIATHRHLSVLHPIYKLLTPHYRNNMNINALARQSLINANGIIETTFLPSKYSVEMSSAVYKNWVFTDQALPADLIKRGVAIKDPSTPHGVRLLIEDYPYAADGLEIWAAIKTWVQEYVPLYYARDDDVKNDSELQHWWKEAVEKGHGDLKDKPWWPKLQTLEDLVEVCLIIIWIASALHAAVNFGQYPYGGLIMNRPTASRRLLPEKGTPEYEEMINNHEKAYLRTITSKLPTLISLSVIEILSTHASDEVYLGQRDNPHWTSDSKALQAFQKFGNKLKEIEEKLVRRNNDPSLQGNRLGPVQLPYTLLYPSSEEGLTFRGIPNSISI
T1 sequence (P22303 32-614, species assumed): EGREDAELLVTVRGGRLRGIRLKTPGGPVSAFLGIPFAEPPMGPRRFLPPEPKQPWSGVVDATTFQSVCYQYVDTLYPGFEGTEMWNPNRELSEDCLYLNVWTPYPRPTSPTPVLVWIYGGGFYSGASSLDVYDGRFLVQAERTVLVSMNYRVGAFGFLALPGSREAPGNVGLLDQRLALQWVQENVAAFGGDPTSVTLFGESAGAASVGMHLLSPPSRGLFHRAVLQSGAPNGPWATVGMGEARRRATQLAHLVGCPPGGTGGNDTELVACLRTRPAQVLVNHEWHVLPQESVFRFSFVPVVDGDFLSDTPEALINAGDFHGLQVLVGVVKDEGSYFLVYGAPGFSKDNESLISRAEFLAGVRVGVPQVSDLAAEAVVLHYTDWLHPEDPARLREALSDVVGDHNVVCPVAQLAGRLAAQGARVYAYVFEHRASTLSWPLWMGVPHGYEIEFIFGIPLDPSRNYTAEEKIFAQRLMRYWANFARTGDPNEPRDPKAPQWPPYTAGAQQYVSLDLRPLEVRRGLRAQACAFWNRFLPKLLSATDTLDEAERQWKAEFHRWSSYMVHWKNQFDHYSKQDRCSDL
Sequence of α-glucosidase (P53341 whole entry): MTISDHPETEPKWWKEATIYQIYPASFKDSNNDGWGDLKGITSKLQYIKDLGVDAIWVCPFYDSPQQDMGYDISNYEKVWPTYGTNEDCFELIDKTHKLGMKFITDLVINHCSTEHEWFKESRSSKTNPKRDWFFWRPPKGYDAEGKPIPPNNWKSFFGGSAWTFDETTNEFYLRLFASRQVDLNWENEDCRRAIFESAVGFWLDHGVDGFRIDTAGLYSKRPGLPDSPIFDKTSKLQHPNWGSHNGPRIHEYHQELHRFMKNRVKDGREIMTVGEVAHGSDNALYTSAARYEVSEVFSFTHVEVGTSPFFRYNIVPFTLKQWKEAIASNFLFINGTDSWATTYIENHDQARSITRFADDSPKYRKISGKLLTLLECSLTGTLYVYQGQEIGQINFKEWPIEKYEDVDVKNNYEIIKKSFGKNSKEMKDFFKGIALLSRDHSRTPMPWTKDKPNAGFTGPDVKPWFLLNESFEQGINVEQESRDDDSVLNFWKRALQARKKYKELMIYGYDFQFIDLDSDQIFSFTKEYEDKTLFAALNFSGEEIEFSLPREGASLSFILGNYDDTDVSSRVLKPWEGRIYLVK

SMILES | Half Maximal Inhibitory Concentration IC50 NO. [1] | lipoxygenase inhibition / anti-inflammatory activity (5-lipoxygenase) | inhibition (tyrosinase [3]) [%] | Inhibition Zone S. aureus ATCC 6538 (S. aureus ATCC 6538) | Inhibition Zone Methicillin Resistant S. aureus 15 [4] | Inhibition Zone E. coli DSM 1077 (E. coli DSM 1077) | IC50 (acetylcholinesterase [5]) [µM] | Half Maximal Inhibitory Concentration IC50 H2O2 [6] | nitric oxide radical scavenging activity [1] | Half Maximal Inhibitory Concentration IC50 Superoxide [7] | also measured
CC12CCC(CC1)C(C)(C)O2 [1,8-Cineole] | --- | weak anti-inflammatory activity | > 20 | 10.5 ± 0.70 ^c mm | 12.16 ± 0.47 ^b mm | 12.16 ± 0.62 ^b,c mm | 64.8 |  |  |  | IC50 (acetylcholinesterase [2]): 1170 µM; Inhibition Zone S. aureus ATCC 6538 (S. aureus ATCC 6538; listed as 1,8-cineole): 10.5 ± 0.70 mm
CC1(C)C2CCC1(C)C(O)C2 (stereo not shown) [Borneol] |  |  | > 20 |  |  |  |  | --- | had activity |  | IC50 (acetylcholinesterase [2]; mean ± SD, triplicate, read-out: Half Maximal Inhibitory Concentration IC50 Acetylcholinesterase (converted)): 3110 µM
CC12CCC(CC1=O)C2(C)C (stereo not shown) [Camphor] | --- | weak anti-inflammatory activity | > 20 | 10.5 ± 1.22 ^c mm | 11.67 ± 1.02 ^b,c mm | 13.00 ± 0.40 ^b mm |  | --- |  | --- | Inhibition Zone S. aureus ATCC 6538 (S. aureus ATCC 6538; listed as camphor): 10.5 ± 1.22 mm
O=C(N[C@H](CO)[C@H](O)c1ccc([N+](=O)[O-])cc1)C(Cl)Cl [Chloramphenicol] |  |  |  | 10.16 ± 0.70 ^c mm | 6.00 ± 0.00 ^d mm |  |  |  |  |  | zone of inhibition at 30 µg/mL (S. aureus ATCC 6538; Staphylococcus aureus, ATCC6538): 10.2 ± 0.7 mm; zone of inhibition at 30 µg/mL ([4]; Staphylococcus aureus, MRSA): 6 mm; zone of inhibition at 30 µg/mL (E. coli DSM 1077; Escherichia coli, DSM1077): 10.8 ± 0.47 mm
C=C(C)[C@H]1CC=C(C)CC1 [Limonene] |  |  |  |  |  |  |  |  | had activity |  | Half Maximal Inhibitory Concentration IC50 α-Glucosidase (α-glucosidase): 1.18 ± 0.06 ^a mg/mL; Half Maximal Inhibitory Concentration IC50 Acetylcholinesterase (acetylcholinesterase [2]; mean ± SD, triplicate): 0.08 ± 0.00 ^e,f,g,h,i mg/mL; Half Maximal Inhibitory Concentration IC50 Lipoxygenase (5-lipoxygenase; mean ± SD, triplicate): 0.11 ± 0.01 ^f mg/mL
C=CC(C)(O)CCC=C(C)C (stereo not shown) [Linalool] | --- | weak anti-inflammatory activity | > 20 | 12.83 ± 0.47 ^b,c mm | 13.83 ± 1.24 ^b mm | 15.67 ± 0.23 ^a mm |  |  |  | 20.41 ± 1.47 ^b mg/mL | Half Maximal Inhibitory Concentration IC50 DPPH [8]: 102.34 ± 3.13 ^b mg/mL; Half Maximal Inhibitory Concentration IC50 NO. ([1]; listed as linalool): had no ability; Half Maximal Inhibitory Concentration IC50 α-Glucosidase (α-glucosidase; listed as linalool): did not have activity; Inhibition Zone S. aureus ATCC 6538 (S. aureus ATCC 6538; listed as linalool): 12.83 ± 0.47 mm; Inhibition Zone Methicillin Resistant S. aureus 15 ([4]; listed as linalool): 13.83 ± 1.24 mm; Inhibition Zone E. coli DSM 1077 (E. coli DSM 1077; listed as linalool): 15.67 ± 0.23 mm; inhibition zone against S. aureus (S. aureus): 13.0 ± 4.2 mm; inhibition zone against E. coli (E. coli): 10.3 ± 0.5 mm
C=CC(C)(CCC=C(C)C)OC(C)=O (stereo not shown) [Linalyl acetate] | --- |  | > 20 |  |  |  |  | --- |  | 18.23 ± 0.01 ^b mg/mL | Half Maximal Inhibitory Concentration IC50 DPPH [8]: 148.61 ± 1.28 ^a mg/mL; Half Maximal Inhibitory Concentration IC50 NO. ([1]; listed as linalyl acetate): had no ability; Half Maximal Inhibitory Concentration IC50 α-Glucosidase (α-glucosidase; listed as linalyl acetate): did not have activity; MIC against MRSA strains (MRSA strains): 450.50 ± 0.00 μL/mL
CC1=CCC2CC1C2(C)C (stereo not drawn) [α-Pinene] |  |  |  |  |  |  | 147 | --- | had activity |  | tyrosinase inhibition percentage, major terpenes (tyrosinase [9]): lowest ability
CC1=CC[C@@H](C(C)(C)O)CC1 [α-Terpineol] |  | weak anti-inflammatory activity | > 20 |  |  |  | 8430 | --- | had activity |  | Half Maximal Inhibitory Concentration IC50 α-Glucosidase (α-glucosidase): had no activity
